The record followed here is patent publication US10150760B2, “Compounds for use in preparing heterocyclic triazole agonists of the APJ receptor” (AMGEN INC., priority 2016, dated 2018).

A word on the EC50: it is the concentration giving half of the maximal effect.

Sequence of human APJ receptor (P35414 whole entry): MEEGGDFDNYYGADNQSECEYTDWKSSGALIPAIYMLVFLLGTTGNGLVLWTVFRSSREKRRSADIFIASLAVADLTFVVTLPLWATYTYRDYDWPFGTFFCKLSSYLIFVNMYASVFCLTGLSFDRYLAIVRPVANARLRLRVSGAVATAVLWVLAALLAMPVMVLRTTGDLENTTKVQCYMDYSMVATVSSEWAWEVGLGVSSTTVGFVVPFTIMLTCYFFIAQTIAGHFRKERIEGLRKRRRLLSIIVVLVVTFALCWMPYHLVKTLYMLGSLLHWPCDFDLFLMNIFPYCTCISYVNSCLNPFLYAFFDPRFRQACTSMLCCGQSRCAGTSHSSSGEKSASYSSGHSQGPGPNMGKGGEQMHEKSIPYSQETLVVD

This test has as its target human APJ receptor (Homo sapiens (Human), UniProt P35414). Briefly: [35S]GTPγS binding assay on membranes from CHO cells stably expressing human APJ receptor. Format: biochemical. Conditions: read-out: Activity hAPJ SPA EC50 IP. In short, it runs like this:
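Agonist-driven [35S]GTPγS (0.2 nM) binding was measured over 90 min at room temperature on human APJ-expressing CHO membranes with bead capture, in buffer containing 3 μM GDP, 200 mM NaCl and 5 mM MgCl2 (pH 7.5). Excess unlabelled GTPγS (100 μM) gave nonspecific signal; EC50 from non-linear fits.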
A general note: GTPγS resists hydrolysis and so accumulates on activated G proteins.
In the case of “(1S,2S)-N-(4-(1,3-dimethoxy-2-propanyl)-5-((2R,5R)-5-methyltetrahydro-2-furanyl)-4H-1,2,4-triazol-3-yl)-1-(5-methyl-2-pyridinyl)-1-(2-propanyloxy)-2-propanesulfonamide or (1S,2S)-N-(4-(1,3-dimethoxy-2-propanyl)-5-((2S,5S)-5-methyltetrahydro-2-furanyl)-4H-1,2,4-triazol-3-yl)-1-(5-methyl-2-pyridinyl)-1-(2-propanyloxy)-2-propanesulfonamide [Example 366.0]”, the concentration for a half-maximal effect (EC50) was 680 nM.

For the substance “(1S,2S)-N-(4-(1,3-dimethoxy-2-propanyl)-5-((2R,5R)-5-methyltetrahydro-2-furanyl)-4H-1,2,4-triazol-3-yl)-1-(5-methyl-2-pyridinyl)-1-(2-propanyloxy)-2-propanesulfonamide or (1S,2S)-N-(4-(1,3-dimethoxy-2-propanyl)-5-((2S,5S)-5-methyltetrahydro-2-furanyl)-4H-1,2,4-triazol-3-yl)-1-(5-methyl-2-pyridinyl)-1-(2-propanyloxy)-2-propanesulfonamide [Example 367.0]”, the EC50 is 12 nM.

In the case of “(1S,2S)-N-(4-(1,3-dimethoxy-2-propanyl)-5-((2R,5R)-5-methyltetrahydro-2-furanyl)-4H-1,2,4-triazol-3-yl)-1-(5-methyl-2-pyrimidinyl)-1-(2-propanyloxy)-2-propanesulfonamide or (1S,2S)-N-(4-(1,3-dimethoxy-2-propanyl)-5-((2S,5S)-5-methyltetrahydro-2-furanyl)-4H-1,2,4-triazol-3-yl)-1-(5-methyl-2-pyrimidinyl)-1-(2-propanyloxy)-2-propanesulfonamide [Example 358.0]”, the EC50 is 430 nM.

As for “(1S,2S)-N-(4-(1,3-dimethoxy-2-propanyl)-5-((2R,5R)-5-methyltetrahydro-2-furanyl)-4H-1,2,4-triazol-3-yl)-1-(5-methyl-2-pyrimidinyl)-1-(2-propanyloxy)-2-propanesulfonamide or (1S,2S)-N-(4-(1,3-dimethoxy-2-propanyl)-5-((2S,5S)-5-methyltetrahydro-2-furanyl)-4H-1,2,4-triazol-3-yl)-1-(5-methyl-2-pyrimidinyl)-1-(2-propanyloxy)-2-propanesulfonamide [Example 359.0]”, the 50% effective concentration (EC50) was 11 nM.

Turning to “(1S,2S)-N-(4-(2,6-dimethoxyphenyl)-5-((3R)-tetrahydro-3-furanyl)-4H-1,2,4-triazol-3-yl)-1-(5-methyl-2-pyridinyl)-1-(2-propanyloxy)-2-propanesulfonamide or (1S,2S)-N-(4-(2,6-dimethoxyphenyl)-5-((3S)-tetrahydro-3-furanyl)-4H-1,2,4-triazol-3-yl)-1-(5-methyl-2-pyridinyl)-1-(2-propanyloxy)-2-propanesulfonamide [Example 407.0]”, the concentration giving a half-maximal response (EC50) is 10 nM.

“(1S,2S)-N-(4-(2,6-dimethoxyphenyl)-5-((S)-1,4-dioxan-2-yl)-4H-1,2,4-triazol-3-yl)-1-isopropoxy-1-(5-methylpyrimidin-2-yl)propane-2-sulfonamide and (1S,2S)-N-(4-(2,6-dimethoxyphenyl)-5-((R)-1,4-dioxan-2-yl)-4H-1,2,4-triazol-3-yl)-1-isopropoxy-1-(5-methylpyrimidin-2-yl)propane-2-sulfonamide [Example 256.0]”: the concentration for a half-maximal effect (EC50) came out at 15 nM.

“(1S,2S)-N-(4-(2,6-dimethoxyphenyl)-5-((S)-5,5-dimethyltetrahydrofuran-2-yl)-4H-1,2,4-triazol-3-yl)-1-isopropoxy-1-(5-methylpyrimidin-2-yl)propane-2-sulfonamide or (1S,2S)-N-(4-(2,6-dimethoxyphenyl)-5-((R)-5,5-dimethyltetrahydrofuran-2-yl)-4H-1,2,4-triazol-3-yl)-1-isopropxy-1-(5-methylpyrimidin-2-yl)propane-2-sulfonamide [Example 210.0]”: the concentration giving a half-maximal response (EC50) is 0.62 nM.

With “(1S,2S)-N-(4-(4,6-dimethoxypyrimidin-5-yl)-5-((R)-5,5-dimethyltetrahydrofuran-3-yl)-4H-1,2,4-triazol-3-yl)-1-isopropoxy-1-(5-methylpyrimidin-2-yl)propane-2-sulfonamide or (1S,2S)-N-(4-(4,6-dimethoxypyrimidin-5-yl)-5-((S)-5,5-dimethyltetrahydrofuran-3-yl)-4H-1,2,4-triazol-3-yl)-1-isopropoxy-1-(5-methylpyrimidin-2-yl)propane-2-sulfonamide [Example 313.0]”, the EC50 was found to be 530 nM.

“(1S,2S)-N-(4-(4,6-dimethoxypyrimidin-5-yl)-5-((R)-5,5-dimethyltetrahydrofuran-3-yl)-4H-1,2,4-triazol-3-yl)-1-isopropoxy-1-(5-methylpyrimidin-2-yl)propane-2-sulfonamide or (1S,2S)-N-(4-(4,6-dimethoxypyrimidin-5-yl)-5-((S)-5,5-dimethyltetrahydrofuran-3-yl)-4H-1,2,4-triazol-3-yl)-1-isopropoxy-1-(5-methylpyrimidin-2-yl)propane-2-sulfonamide [Example 314.0]”: the half-maximal effective concentration (EC50) came out at 71 nM.

Regarding “(1S,2S)-N-(4-(4,6-dimethoxypyrimidin-5-yl)-5-((R)-tetrahydrofuran-3-yl)-4H-1,2,4-triazol-3-yl)-1-(5-fluoropyrimidin-2-yl)-1-isopropoxypropane-2-sulfonamide or (1S,2S)-N-(4-(4,6-dimethoxypyrimidin-5-yl)-5-((S)-tetrahydrofuran-3-yl)-4H-1,2,4-triazol-3-yl)-1-(5-fluoropyrimidin-2-yl)-1-isopropoxypropane-2-sulfonamide [Example 321.0]”, the concentration for a half-maximal effect (EC50) was determined as 68 nM.

On to “(1S,2S)-N-(4-(4,6-dimethoxypyrimidin-5-yl)-5-((R)-tetrahydrofuran-3-yl)-4H-1,2,4-triazol-3-yl)-1-(5-fluoropyrimidin-2-yl)-1-isopropoxypropane-2-sulfonamide or (1S,2S)-N-(4-(4,6-dimethoxypyrimidin-5-yl)-5-((S)-tetrahydrofuran-3-yl)-4H-1,2,4-triazol-3-yl)-1-(5-fluoropyrimidin-2-yl)-1-isopropoxypropane-2-sulfonamide [Example 322.0]”, for which the EC50 is 310 nM.

On to “(1S,2S)-N-(4-(4,6-dimethoxypyrimidin-5-yl)-5-((R)-tetrahydrofuran-3-yl)-4H-1,2,4-triazol-3-yl)-1-isopropoxy-1-(5-methylpyridin-2-yl)propane-2-sulfonamide or (1S,2S)-N-(4-(4,6-dimethoxypyrimidin-5-yl)-5-((S)-tetrahydrofuran-3-yl)-4H-1,2,4-triazol-3-yl)-1-isopropoxy-1-(5-methylpyridin-2-yl)propane-2-sulfonamide [Example 323.0]”, for which the EC50 was 47 nM.

Consider “(1S,2S)-N-(4-(4,6-dimethoxypyrimidin-5-yl)-5-((R)-tetrahydrofuran-3-yl)-4H-1,2,4-triazol-3-yl)-1-isopropoxy-1-(5-methylpyridin-2-yl)propane-2-sulfonamide or (1S,2S)-N-(4-(4,6-dimethoxypyrimidin-5-yl)-5-((S)-tetrahydrofuran-3-yl)-4H-1,2,4-triazol-3-yl)-1-isopropoxy-1-(5-methylpyridin-2-yl)propane-2-sulfonamide [Example 324.0]”, for which the 50% effective concentration (EC50) was 380 nM.
